Assays:
[1] = tested on: CD34+CD90+ cord blood cells; experiment: Cell cycle phase of CD34+CD90+ cells in culture, cord blood (Example 5); type: cell-based; settings: cytokines, same in presence or absence of Compound 26 (500 nM)
NSG mice [2] = experiment: Transplant of gene-modified, expanded CD34+ cells into NSG mice (Example 2); type: in vivo, mouse; settings: AHR antagonist = Compound 26
From the text: Transplant into NSG mice: All of the progeny from cultured cells were transplanted into sub-lethally irradiated, female, 6-8 week old NSG mice. Engraftment and transduction/editing rates were monitored monthly by flow cytometry. “Minimally manipulated” controls were transplanted one day after editing for a total culture time of 2 days.

[3] = tested on: CD34+CD90+ mobilized peripheral blood cells; experiment: Cell cycle phase of CD34+CD90+ cells in culture, mobilized peripheral blood (Example 5); type: cell-based; settings: cytokines, same in presence or absence of Compound 26 (500 nM)
[4] = tested on: mPB and BM derived CD34+ cells; experiment: Expansion of CRISPR/Cas9 B2M-edited mPB and BM CD34+ cells (Example 1); type: cell-based, human; settings: 7 days of expansion, AHR antagonist = Compound 26
Method: (§1) Methods. […] Cell number and immunophenotype were assessed by flow cytometry, and HSC function was evaluated by cell and molecular assays in vitro. The expanded cells were transplanted into sub-lethally irradiated NSG mice to evaluate engraftment potential in vivo. For editing studies, mPB and BM CD34+ cells were electroporated with CRISPR/Cas9 RNPs targeting the beta-2 microglobulin (B2M) cell surface protein. Editing rates were evaluated by flow cytometry based on loss of protein expression and TIDE analysis. Edited cells were expanded in the presence of AHR antagonist or vehicle and transplanted into NSG mice. The AHR antagonist used in the experiments described in this Example is Compound 26 herein. Engraftment and editing rates were evaluated by flow cytometry of the peripheral blood and bone marrow.

AHR = molecular target: T1, AHR (Homo sapiens, UniProt P35869); experiment: Dioxin response element luciferase reporter assay; type: cell-based
T1 sequence (P35869 11-848): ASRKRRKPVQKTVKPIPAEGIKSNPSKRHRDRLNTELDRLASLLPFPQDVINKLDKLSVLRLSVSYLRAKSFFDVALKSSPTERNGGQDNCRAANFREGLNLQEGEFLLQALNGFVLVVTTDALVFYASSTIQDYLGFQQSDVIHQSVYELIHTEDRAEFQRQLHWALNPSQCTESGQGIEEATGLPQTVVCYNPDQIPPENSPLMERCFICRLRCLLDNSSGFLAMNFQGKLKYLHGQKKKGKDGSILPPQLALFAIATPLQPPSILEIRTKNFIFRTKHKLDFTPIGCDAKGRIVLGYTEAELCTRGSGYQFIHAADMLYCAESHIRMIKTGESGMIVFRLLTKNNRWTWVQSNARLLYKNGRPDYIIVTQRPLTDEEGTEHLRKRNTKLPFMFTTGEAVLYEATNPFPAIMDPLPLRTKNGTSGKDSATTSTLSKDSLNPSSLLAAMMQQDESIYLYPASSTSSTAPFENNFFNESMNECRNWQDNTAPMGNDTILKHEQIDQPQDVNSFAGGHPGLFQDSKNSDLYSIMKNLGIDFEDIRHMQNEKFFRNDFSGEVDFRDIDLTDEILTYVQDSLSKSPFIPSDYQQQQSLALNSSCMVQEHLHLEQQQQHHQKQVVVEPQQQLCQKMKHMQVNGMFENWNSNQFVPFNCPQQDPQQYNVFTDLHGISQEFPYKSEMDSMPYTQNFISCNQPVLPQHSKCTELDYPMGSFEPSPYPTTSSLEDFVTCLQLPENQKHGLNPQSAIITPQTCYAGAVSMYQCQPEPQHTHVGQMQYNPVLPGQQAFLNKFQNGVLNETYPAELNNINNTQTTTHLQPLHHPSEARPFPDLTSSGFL

[5] = tested on: CD34+ cells from mPB and bone marrow (BM); experiment: Ex vivo expansion of lentivirally transduced or CRISPR/Cas9 B2M-edited CD34+ cells (Example 2); type: cell-based, human; settings: AHR antagonist = Compound 26
Method: Lentiviral Transduction: Cryopreserved CD34+ cells from mobilized peripheral blood (mPB) were thawed and cultured overnight in media with cytokines and either vehicle (DMSO) or the AHR antagonist (expanded). The following day, cells were plated on retronectin-coated plates and transduced with a lentiviral vector, containing a green fluorescent protein (GFP) transgene under the control of the MND promoter, at an MOI of 50 in the presence of vehicle or the AHR antagonist. 24 hours later, cells were harvested, washed, and resuspended in media with cytokines and the appropriate compound.
CRISPR/Cas9 Editing and Expansion: Cryopreserved CD34+ cells from mPB and bone marrow (BM) were thawed and cultured overnight in media with cytokines and either vehicle or the AHR antagonist. Cells were electroporated with Cas9 protein (Aldevron) and synthetic, chemically-modified gRNA (Synthego) targeting beta-2-microglobulin (B2M) as a ribonucleotide protein (RNP).

[6] = tested on: primary human CD34+ cells; experiment: Ex vivo expansion of primary human CD34+ cells in the presence of cytokines (Example 1); type: cell-based; settings: relative to vehicle-cultured CB derived CD34+ cells
Method: as §1

NSG mice [7] = experiment: Transplant of expanded cells into sub-lethally irradiated NSG mice, engraftment and editing rates by flow cytometry (Example 1); type: in vivo, mouse; settings: for engraftment in NSG mice: relative to vehicle-cultured CB derived CD34+ cells
Method: as §1

[8] = tested on: mobilized peripheral blood (mPB) CD34+ cells; experiment: Gene correction rate after prestimulation and electroporation with gRNA/Cas9 and oligonucleotide donor (Example 5); type: cell-based; settings: mPB cells prestimulated 4 days in the presence of Compound 26 versus 1 day prior to electroporation; FIG. 13A
Method: Mobilized peripheral blood (mPB) CD34+ or cord blood (CB) CD34+ cells were thawed and pre-stimulated, i.e., cultured, in serum-free media (SFEM media supplemented with cytokines SCF, IL6, TPO, and FLT3L) in the presence or absence of Compound 26 (500 nM). Cells were pre-stimulated 1, 2, 3, or 4 days prior to electroporation with gRNA/Cas9 and oligonucleotide donor. Cells were cultured for an additional 8 days after electroporation and profiled at 2, 4, 6, or 8 days post-electroporation using a Trucount-based method of HSC quantification of CD34, CD90, and CD45RA. Cells were subcultured to maintain cell density at less than 1×10^6 cells/mL. On day 8, genomic DNA was extracted from bulk cell cultures, and correction rate was assessed by qPCR. Number of corrected cells was determined by number of total cells at the indicated timepoint multiplied by the correction rate for that pre-stimulation condition.

[9] = mPB CD34+ cells, 7 days culture, FIGS. 2A-2D
[10] = B2M-edited expanded cells, AHR antagonist = Compound 26

`COCCC(C)c1cnc2c(NCCc3c[nH]c4ccccc34)nc(-c3cncc(F)c3)cn12` (stereo not shown) [Compound 26] was tested, and the “days in culture after which substantially all CD34+CD90+ cells exit the G0 phase and enter the replicative cell cycle” value [1] was “about 3 days”, the “retention of B2M− phenotype relative to vehicle-treated cells following transplantation” value (NSG mice [2]; NSG mice) was “greater retention” and the “improvement in engraftment compared to vehicle-cultured cells” value (NSG mice [2]; edited, expanded cells, both the PB and BM of mice after 16 weeks) was “greater than 2 fold”. For the same molecule, the “engraftment rates relative to minimally-manipulated cells” value (NSG mice [2]; expanded, edited mPB and BM cells, FIGS. 7A-7N) was “higher engraftment rates”, the “editing rates following transplantation into NSG mice” value (NSG mice [2]; mPB and BM CD34+ cells) was “maintained” and the “engraftment compared to minimally manipulated and vehicle controls” value (NSG mice [2]; mPB and BM hematopoietic stem cells transplanted into NSG mice) was “increased engraftment”. The “engraftment rates relative to vehicle-cultured cells” value (NSG mice [2]; transduced/edited, expanded mPB cells in NSG mice) was “higher engraftment rates”, the “days in culture after which substantially all CD34+CD90+ cells exit the G0 phase and enter the replicative cell cycle” value [3] was “about 3 days” and the “CD34+CD90+ cells in expanded culture versus vehicle-treated cells” value ([4]; B2M-edited cells) was 3.4 fold. For the same molecule, the “loss of the target protein (B2M)” value ([4]; mPB and BM CD34+ cells edited with CRISPR/Cas9 RNPs) was 84%, the “AHR antagonism in the dioxin response element luciferase reporter assay” value (AHR) was “complete AHR antagonism” and the “increase in potency compared to SR1” value (AHR; dioxin response element luciferase reporter assay) was 12 fold. For the same molecule, the “quantity of GFP+CD34+CD90+ cells” value ([5]; GFP lentivirus-transduced mPB CD34+ cells, 7 days, versus vehicle or no treatment) was “increased the quantity of GFP+CD34+CD90+ cells to a greater extent than vehicle treatment”, the editing rates ([5]; both mPB and BM CD34+ cells, CRISPR/Cas9 B2M) was 80% and the “quantities of total cells, CD34+ cells, and CD34+CD90+ cells relative to vehicle-treated and untreated cells” value ([5]; cells subject to CRISPR/Cas9-mediated B2M editing, FIGS. 5A-5E) was “substantially higher quantities”. For the same molecule, the “quantities of total cells, CD34+ cells, and CD34+CD90+ cells relative to vehicle-treated and untreated cells” value ([5]; cells subject to lentiviral transduction, FIGS. 3A-3E) was “substantially higher quantities”, the “quantity of CD34+CD90+ cells relative to vehicle-treated and untreated cells” value [5, 9] was “substantial increase” and the “total quantity of cells relative to vehicle-treated cells” value [5, 9] was “increase in the total quantity of cells”. The “increase in CD34+ number” value [6] was 6 fold, the “human cells in the periphery of the mice showing loss of target protein (average)” value (NSG mice [7]; [10]) was > 75% and the “increase in engraftment compared to mice receiving vehicle-treated cells” value (NSG mice [7]; [10]) was “greater than 2 fold”. The “engraftment in NSG mice” value (NSG mice [7]) was “significant increase” and the “rates of gene correction” value [8] was “higher rates of gene correction”.

In the case of `CC(C)n1cnc2c(NCCc3ccc(O)cc3)nc(-c3csc4ccccc34)nc21` [SR1, reference compound], the “increase in CD34+ number” value [6] is reported as 6 fold and the “engraftment in NSG mice” value (NSG mice [7]) is reported as “significant increase”.
